This note sets out measurements from US11535621B2, “Heterobicyclic amides as inhibitors of CD38” (Ribon Therapeutics, Inc., priority 2019, dated 2022).

Where only a bound is given, the exact number is not on record here.

The target of this test is Human CD38 (Homo sapiens (Human), UniProt P28907). Description: CD38 enzyme assay. The test is classed as biochemical. As to conditions: 2 nM CD38, NAD+ substrate, absorbance at 405 nm. An excerpt: [formula] where SUBcmpd is the subtracted value for the individual compound treated well, SUBmin is the average of the subtracted values of the 4-(((1r,4r)-4-(2-methoxyethoxy)cyclohexyl)amino)-1-methyl-6-(thiazol-5-yl)quinolin-2(1H)-one positive control wells and SUBmax is the average of the subtracted values of the DMSO negative control wells.
Chain of Human CD38 (P28907 whole entry): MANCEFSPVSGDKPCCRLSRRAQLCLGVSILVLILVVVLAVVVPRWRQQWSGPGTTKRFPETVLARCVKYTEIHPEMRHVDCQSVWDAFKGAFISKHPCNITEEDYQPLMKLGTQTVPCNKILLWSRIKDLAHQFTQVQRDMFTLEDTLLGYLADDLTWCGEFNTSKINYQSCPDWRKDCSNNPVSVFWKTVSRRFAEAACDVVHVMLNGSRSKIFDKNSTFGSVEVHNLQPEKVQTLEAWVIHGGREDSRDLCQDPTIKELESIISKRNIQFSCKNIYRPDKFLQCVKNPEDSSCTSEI
The % inhibition values were plotted as a function of compound concentration and the following 4-parameter fit was applied to derive the IC50 values:
[formula] where top and bottom are normally allowed to float, but may be fixed at 100 or 0 respectively in a 3-parameter fit. The Hill Coefficient is normally allowed to float but may also be fixed at 1 in a 3-parameter fit. Y is the % inhibition and X is the compound concentration.
Broadly, the IC50 is the point on the concentration scale where inhibition reaches its midpoint. A higher IC50 goes with lower potency. In turn, `O=C(N[C@H]1CCCOC1)c1nc(-n2ccnc2)nc2cc[nH]c12` (single isomer, unassigned) [Example 28a] registered a half-maximal inhibitory concentration (IC50) of 10 to 100 nM.
For `O=C(N[C@@H]1CCCOC1)c1nc(-n2ccnc2)nc2cc[nH]c12` (single isomer, unassigned) [Example 28b] the value was under 10 nM.
With `CC(C)[C@@H](O)CO[C@H]1CC[C@H](NC(=O)c2nc(-n3ccnc3)nc3cc[nH]c23)CC1` (single isomer, unassigned) [Example 119a], the IC50 lay in the range of 10 to 100 nM.
The same measure for `CC(C)[C@H](O)CO[C@H]1CC[C@H](NC(=O)c2nc(-n3ccnc3)nc3cc[nH]c23)CC1` (single isomer, unassigned) [Example 119b]: 10 to 100 nM; for `C[C@@H](O)CO[C@H]1CC[C@H](NC(=O)c2nc(-n3ccnc3)nc3cc[nH]c23)CC1` (single isomer, unassigned) [Example 125a]: 10 to 100 nM; for `CC(C)[C@@](C)(O)CO[C@H]1CC[C@H](NC(=O)c2nc(-n3ccnc3)nc3cc[nH]c23)CC1` (single isomer, unassigned) [Example 126a]: 10 to 100 nM.
`C[C@@](O)(C(=O)N[C@H]1CC[C@H](NC(=O)c2nc(-n3ccnc3)nc3cc[nH]c23)CC1)C(F)(F)F` (single isomer, unassigned) [Example 127a] registered an IC50 of 10 to 100 nM.
Compound `C[C@H](O)CO[C@H]1CC[C@H](NC(=O)c2nc(-n3ccnc3)cc3cn[nH]c23)CC1` (single isomer, unassigned) [Example 207] had a concentration for half-maximal inhibition (IC50) of 10 to 100 nM.
For `C[C@@H](O)CO[C@H]1CC[C@H](NC(=O)c2nc(-n3ccnc3)cc3cn[nH]c23)CC1` (single isomer, unassigned) [Example 208], the IC50 lay in the range of 10 to 100 nM.
The same measure for `C[C@@H](O)[C@H]1CC[C@H](NC(=O)c2nc(-n3ccnc3)nc3ccsc23)CC1` (single isomer, unassigned) [Example 267a]: under 10 nM; for `C[C@H](O)[C@H]1CC[C@H](NC(=O)c2nc(-n3ccnc3)nc3ccsc23)CC1` (single isomer, unassigned) [Example 267b]: 10 to 100 nM.
The same measure for `COCCO[C@H]1CC[C@H](NC(=O)c2cc(-n3ccnc3)cc3nc[nH]c23)CC1` [Example 1, 5-(1H-Imidazol-1-yl)-N-((1r,4r)-4-(2-methoxyethoxy)cyclohexyl)-1H-benzo[d]imidazole-7-carboxamide]: 100 to 1000 nM.
`O=C(NCc1c(F)cccc1C(F)(F)F)c1cc(-n2ccnc2)cc2nc[nH]c12` [Example 2, N-(2-Fluoro-6-(trifluoromethyl)benzyl)-5-(1H-imidazol-1-yl)-1H-benzo[d]imidazole-7-carboxamide] registered an IC50 of over 1000 nM.
For `O=C(NCc1c(F)cccc1C(F)(F)F)c1cc(-c2cncs2)cc2nc[nH]c12` [Example 3, N-[[2-Fluoro-6-(trifluoromethyl)phenyl]methyl]-6-thiazol-5-yl-3H-benzimidazole-4-carboxamide] the value was 100 to 1000 nM; for `COCCO[C@H]1CC[C@H](NC(=O)c2cc(-c3cncs3)cc3nc[nH]c23)CC1` [Example 4, N-((1r,4r)-4-(2-Methoxyethoxy)cyclohexyl)-5-(thiazol-5-yl)-1H-benzo[d]imidazole-7-carboxamide], 100 to 1000 nM.
`O=C(NCc1c(F)cccc1C(F)(F)F)c1cc(-n2ccnc2)cc2cc[nH]c12` [Example 5, N-(2-Fluoro-6-(trifluoromethyl)benzyl)-5-(1H-imidazol-1-yl)-1H-indole-7-carboxamide] displayed an IC50 of 100 to 1000 nM.
On to `COCCO[C@H]1CC[C@H](NC(=O)c2cc(-n3ccnc3)cc3cc(C)[nH]c23)CC1` [Example 9, 5-(1H-Imidazol-1-yl)-N-((1r,4r)-4-(2-methoxyethoxy)cyclohexyl)-2-methyl-1H-indole-7-carboxamide], for which the IC50 fell in the range of 100 to 1000 nM.
As for `COCCO[C@H]1CC[C@H](NC(=O)c2cc(-n3ccnc3)nc3cc[nH]c23)CC1` [Example 10, 5-(1H-imidazol-1-yl)-N-((1r,4r)-4-(2-methoxyethoxy)cyclohexyl)-1H-pyrrolo[3,2-b]pyridine-7-carboxamide], the half-inhibitory concentration (IC50) lay within 10 to 100 nM.
With `Cc1cc2cc(-c3cncs3)cc(C(=O)NCc3c(F)cccc3C(F)(F)F)c2[nH]1` [Example 11, N-(2-Fluoro-6-(trifluoromethyl)benzyl)-2-methyl-5-(thiazol-5-yl)-1H-indole-7-carboxamide], the IC50 fell in the range of 10 to 100 nM.
For `COCCO[C@H]1CC[C@H](NC(=O)c2nc(-n3ccnc3)cc3cc[nH]c23)CC1` [Example 12, 5-(1H-Imidazol-1-yl)-N-((1r,4r)-4-(2-methoxyethoxy)cyclohexyl)-1H-pyrrolo[2,3-c]pyridine-7-carboxamide] the value was 10 to 100 nM; for `COCCO[C@H]1CC[C@H](NC(=O)c2cc(-c3cncs3)cc3nc(C)[nH]c23)CC1` [Example 13, N-((1r,4r)-4-(2-Methoxyethoxy)cyclohexyl)-2-methyl-5-(thiazol-5-yl)-1H-benzo[d]imidazole-7-carboxamide], 100 to 1000 nM.
The same measure for `COCCO[C@H]1CC[C@H](NC(=O)c2nc(-n3ccnc3)nc3nc[nH]c23)CC1` [Example 14, 2-(1H-Imidazol-1-yl)-N-((1r,4r)-4-(2-methoxyethoxy)cyclohexyl)-7H-purine-6-carboxamide]: 10 to 100 nM; for `O=C(NCc1c(F)cccc1C(F)(F)F)c1cc(-n2ccnc2)nc2cn[nH]c12` [Example 15, N-(2-Fluoro-6-(trifluoromethyl)benzyl)-5-(1H-imidazol-1-yl)-1H-pyrazolo[4,3-b]pyridine-7-carboxamide]: 100 to 1000 nM; for `COCCO[C@H]1CC[C@H](NC(=O)c2nc(-n3ccnc3)cc3cn[nH]c23)CC1` [Example 16, 5-(1H-Imidazol-1-yl)-N-((1r,4r)-4-(2-methoxyethoxy)cyclohexyl)-1H-pyrazolo[3,4-c]pyridine-7-carboxamide]: 10 to 100 nM.
As to `COCCO[C@H]1CC[C@H](NC(=O)c2cc(-c3cncs3)nc3cn[nH]c23)CC1` [Example 17, N-((1r,4r)-4-(2-Methoxyethoxy)cyclohexyl)-5-(thiazol-5-yl)-1H-pyrazolo[4,3-b]pyridine-7-carboxamide], the IC50 lay within 100 to 1000 nM.
For the compound `COCCO[C@H]1CC[C@H](NC(=O)c2nc(-n3ccnc3)nc3ccsc23)CC1` [Example 18, 2-(1H-Imidazol-1-yl)-N-((1r,4r)-4-(2-methoxyethoxy)cyclohexyl)thieno[3,2-d]pyrimidine-4-carboxamide], the concentration for half-maximal inhibition (IC50) lay in the range of 10 to 100 nM.
Compound `COCCO[C@H]1CC[C@H](NC(=O)c2cc(-n3ccnc3)cc3cc(CN)[nH]c23)CC1` [Example 19, 2-(Aminomethyl)-5-(1H-imidazol-1-yl)-N-((1r,4r)-4-(2-methoxyethoxy)cyclohexyl)-1H-indole-7-carboxamide] came in with an IC50 of 10 to 100 nM.
`O=C(NCc1c(F)cccc1C(F)(F)F)c1nc(-c2cncs2)nc2ccsc12` [Example 20, N-(2-Fluoro-6-(trifluoromethyl)benzyl)-2-(thiazol-5-yl)thieno [3,2-d]pyrimidine-4-carboxamide] had an IC50 of 100 to 1000 nM.
For `COCCO[C@H]1CC[C@H](NC(=O)c2nc(-c3cncs3)cc3cn[nH]c23)CC1` [Example 21, N-((1r,4r)-4-(2-Methoxyethoxy)cyclohexyl)-5-(thiazol-5-yl)-1H-pyrazolo[3,4-c]pyridine-7-carboxamide] the value was 100 to 1000 nM; for `COCCO[C@H]1CC[C@H](NC(=O)c2nc(-n3ccnc3)nc3ccn(C)c23)CC1` [Example 22, 2-(1H-Imidazol-1-yl)-N-((1r,4r)-4-(2-methoxyethoxy)cyclohexyl)-5-methyl-5H-pyrrolo[3,2-d]pyrimidine-4-carboxamide], 10 to 100 nM; for `COCCO[C@H]1CC[C@H](NC(=O)c2nc(-n3ccnc3)nc3cn[nH]c23)CC1` [Example 23, 5-(1H-Imidazol-1-yl)-N-((1r,4r)-4-(2-methoxyethoxy)cyclohexyl)-1H-pyrazolo[4,3-d]pyrimidine-7-carboxamide], 10 to 100 nM.
In turn, `COCCO[C@H]1CC[C@H](NC(=O)c2cc(-n3ccnc3)nc3ccsc23)CC1` [Example 24, 5-(1H-Imidazol-1-yl)-N-((1r,4r)-4-(2-methoxyethoxy)cyclohexyl)thieno[3,2-b]pyridine-7-carboxamide] registered an IC50 of 10 to 100 nM.
For `COCCO[C@H]1CC[C@H](NC(=O)c2nc(-n3ccnc3)nc3ncsc23)CC1` [Example 25, 5-(1H-Imidazol-1-yl)-N-((1r,4r)-4-(2-methoxyethoxy)cyclohexyl)thiazolo[4,5-d]pyrimidine-7-carboxamide] the value was 100 to 1000 nM; for `COCCO[C@H]1CC[C@H](NC(=O)c2nc(-n3ccnc3)cc3nc[nH]c23)CC1` [Example 26, 6-(1H-Imidazol-1-yl)-N-((1r,4r)-4-(2-methoxyethoxy)cyclohexyl)-3H-imidazo[4,5-c]pyridine-4-carboxamide], 10 to 100 nM; for `O=C(NC1CCCOC1)c1nc(-n2ccnc2)nc2cc[nH]c12` (stereo not shown) [Example 27, 2-(1H-Imidazol-1-yl)-N-(tetrahydro-2H-pyran-3-yl)-5H-pyrrolo[3,2-d]pyrimidine-4-carboxamide], under 10 nM.
The same measure for `COCCO[C@H]1CC[C@H](NC(=O)c2cc(-n3ccnc3)c(F)c3cc[nH]c23)CC1` [Example 29, 4-Fluoro-5-(1H-imidazol-1-yl)-N-((1r,4r)-4-(2-methoxyethoxy)cyclohexyl)-1H-indole-7-carboxamide]: 100 to 1000 nM.
The same measure for `COCCO[C@H]1CC[C@H](NC(=O)c2cc(-n3ccnc3)cc3nc(C)[nH]c23)CC1` [Example 30, 5-(1H-imidazol-1-yl)-N-((1r,4r)-4-(2-methoxyethoxy)cyclohexyl)-2-methyl-1H-benzo[d]imidazole-7-carboxamide]: 100 to 1000 nM.
